As a reminder, the IC50 is the concentration that gives 50% inhibition. What is called viability, T/C is the ratio of treated to control.

This assay deals with 171881-019-R-J1-PDC multicell spheroid viability. The assay is described as follows: Anticancer human tumor 171881-019-R-J1-PDC patient-derived invasive breast carcinoma cell line growth inhibition [IpAb]. The following applies: for viability, T/C: stronger effect = lower value. In outline:
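Multi-cell spheroids of 60% tumour cells, 25% HUVEC and 15% MSC in ultra-low-attachment U-bottom wells, treated with agents combined with ipatasertib or abemaciclib. Half-log ranges top out near clinical Cmax, or 10 microM when Cmax is unknown.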

Setting [1] is: curve of first compound, second compound 0.01 µM.
[2] abbreviates: curve of first compound, second compound 0.0316 µM.
Where [3] appears, read: curve of first compound, second compound 0.1 µM.
Setting [4] is: curve of first compound, second compound 0.316 µM.
Where [5] appears, read: curve of first compound, second compound 1 µM.
Where [6] appears, read: second compound 0.1 µM, first compound 0.0316 µM.
Setting [7] is: second compound 0.1 µM, first compound 0.1 µM.
Where [8] appears, read: second compound 0.1 µM, first compound 0.316 µM.
Setting [9] is: second compound 0.1 µM, first compound 1 µM.
Setting [10] is: second compound 0.316 µM, first compound 0.0316 µM.
Setting [11] is: second compound 0.316 µM, first compound 0.1 µM.
Where [12] appears, read: second compound 0.316 µM, first compound 0.316 µM.
The mark [13] stands for this setting: second compound 0.316 µM, first compound 1 µM.
The mark [14] stands for this setting: second compound 1 µM, first compound 0.0316 µM.
The mark [15] stands for this setting: second compound 1 µM, first compound 0.1 µM.
[16] abbreviates: second compound 1 µM, first compound 0.316 µM.
Where [17] appears, read: second compound 1 µM, first compound 1 µM.

Several values for one entry are separate records, joined by “and”; a condition that tells them apart may be missing. Equal entries are not always repeated.
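Further: spheroids exposed to the agents for seven days before readout.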

As to `CC(=O)c1c(C)c2cnc(Nc3ccc(N4CCNCC4)cn3)nc2n(C2CCCC2)c1=O` + CCN1CCN(Cc2ccc(Nc3ncc(F)c(-c4cc(F)c5nc(C)n(C(C)C)c5c4)n3)nc2)CC1, the IC50 is, setting by setting: under setting [1], greater than 300 nM; under setting [2], greater than 300 nM; under setting [3], greater than 300 nM; under setting [4], greater than 300 nM; under setting [5], greater than 300 nM. Moreover, the viability, T/C is 98% (second compound 0.01 µM, first compound 0.000949 µM); 90.7% (second compound 0.01 µM, first compound 0.003 µM); 77% (second compound 0.01 µM, first compound 0.00949 µM); 94.4% (second compound 0.01 µM, first compound 0.03 µM); 105% (second compound 0.01 µM, first compound 0.0949 µM); 107% (second compound 0.01 µM, first compound 0.3 µM). The viability, T/C is 107% (second compound 0.0316 µM, first compound 0.000949 µM); 96.6% (second compound 0.0316 µM, first compound 0.003 µM); 103% (second compound 0.0316 µM, first compound 0.00949 µM); 110% (second compound 0.0316 µM, first compound 0.03 µM); 107% (second compound 0.0316 µM, first compound 0.0949 µM); 109% (second compound 0.0316 µM, first compound 0.3 µM). For the same compound, the viability, T/C (second compound 0.1 µM, first compound 0.000949 µM) was 119%; the viability, T/C (second compound 0.1 µM, first compound 0.003 µM) was 109%; the viability, T/C (second compound 0.1 µM, first compound 0.00949 µM) is 115%; the viability, T/C (second compound 0.1 µM, first compound 0.03 µM) was 117%; the viability, T/C (second compound 0.1 µM, first compound 0.0949 µM) is 115%; the viability, T/C (second compound 0.1 µM, first compound 0.3 µM) is 112%. For the same compound, the viability, T/C is 120% (second compound 0.316 µM, first compound 0.000949 µM); 136% (second compound 0.316 µM, first compound 0.003 µM); 127% (second compound 0.316 µM, first compound 0.00949 µM); 122% (second compound 0.316 µM, first compound 0.03 µM); 123% (second compound 0.316 µM, first compound 0.0949 µM); 122% (second compound 0.316 µM, first compound 0.3 µM). Moreover, the viability, T/C (second compound 1 µM, first compound 0.000949 µM) was 144%; the viability, T/C (second compound 1 µM, first compound 0.003 µM) was 143%; the viability, T/C (second compound 1 µM, first compound 0.00949 µM) is 142%; the viability, T/C (second compound 1 µM, first compound 0.03 µM) was 142%; the viability, T/C (second compound 1 µM, first compound 0.0949 µM) was 140%; the viability, T/C (second compound 1 µM, first compound 0.3 µM) was 132%.

Turning to `COc1c(OCCCN2CCOCC2)ccc2c3n(c(=NC(=O)c4cnc(N)nc4)nc12)CCN3` + CC(C)NCC(C(=O)N1CCN(c2ncnc3c2C(C)CC3O)CC1)c1ccc(Cl)cc1, the IC50 was 16.4 nM under setting [3]; 5.9 nM under setting [4]; less than 3.16 nM under setting [5]; less than 3.16 nM (curve of first compound, second compound 3.16 µM); less than 3.16 nM (curve of first compound, second compound 10 µM). In addition, the viability, T/C is, setting by setting: (second compound 0.1 µM, first compound 0.00316 µM) 94.5%; (second compound 0.1 µM, first compound 0.01 µM) 68.5%; under setting [6], 25.8%; under setting [7], 3.96%; under setting [8], 1.09%; under setting [9], 1.15%. In addition, the viability, T/C is, setting by setting: (second compound 0.316 µM, first compound 0.00316 µM) 61.5%; (second compound 0.316 µM, first compound 0.01 µM) 40%; under setting [10], 16.9%; under setting [11], 3.36%; under setting [12], 0.91%; under setting [13], 0.95%. Moreover, the viability, T/C by setting is: (second compound 1 µM, first compound 0.00316 µM) 25.2%; (second compound 1 µM, first compound 0.01 µM) 15.6%; under setting [14], 8.13%; under setting [15], 2.24%; under setting [16], 0.79%; under setting [17], 1.24%. The viability, T/C is 9.51% (second compound 3.16 µM, first compound 0.00316 µM); 6.39% (second compound 3.16 µM, first compound 0.01 µM); 3.83% (second compound 3.16 µM, first compound 0.0316 µM); 1.68% (second compound 3.16 µM, first compound 0.1 µM); 0.83% (second compound 3.16 µM, first compound 0.316 µM); 0.67% (second compound 3.16 µM, first compound 1 µM). For the same compound, the viability, T/C by setting is: (second compound 10 µM, first compound 0.00316 µM) 5.07%; (second compound 10 µM, first compound 0.01 µM) 3.81%; (second compound 10 µM, first compound 0.0316 µM) 2.45%; (second compound 10 µM, first compound 0.1 µM) 1.59%; (second compound 10 µM, first compound 0.316 µM) 0.62%; (second compound 10 µM, first compound 1 µM) 0.82%.

For `Cc1nc(NC(=O)N2CCCC2C(N)=O)sc1-c1ccnc(C(C)(C)C(F)(F)F)c1` (centres undefined) + CCN1CCN(Cc2ccc(Nc3ncc(F)c(-c4cc(F)c5nc(C)n(C(C)C)c5c4)n3)nc2)CC1, the IC50 is, setting by setting: under setting [1], 783 nM; under setting [2], 733 nM; under setting [3], 823 nM; under setting [4], 977 nM; under setting [5], 1560 nM. Further, the viability, T/C was 109% (second compound 0.01 µM, first compound 0.0316 µM); 112% (second compound 0.01 µM, first compound 0.1 µM); 72% (second compound 0.01 µM, first compound 0.316 µM); 44.7% (second compound 0.01 µM, first compound 1 µM); 15.7% (second compound 0.01 µM, first compound 3.16 µM); 1.42% (second compound 0.01 µM, first compound 10 µM). Besides, the viability, T/C was 118% (second compound 0.0316 µM, first compound 0.0316 µM); 108% (second compound 0.0316 µM, first compound 0.1 µM); 75.7% (second compound 0.0316 µM, first compound 0.316 µM); 40.9% (second compound 0.0316 µM, first compound 1 µM); 13.5% (second compound 0.0316 µM, first compound 3.16 µM); 2.7% (second compound 0.0316 µM, first compound 10 µM). Also, the viability, T/C is, setting by setting: under setting [6], 117%; under setting [7], 112%; under setting [8], 75.9%; under setting [9], 44.9%; (second compound 0.1 µM, first compound 3.16 µM) 18.3%; (second compound 0.1 µM, first compound 10 µM) 2.71%. In addition, the viability, T/C was 130% under setting [10]; 112% under setting [11]; 85.7% under setting [12]; 47.2% under setting [13]; 23% (second compound 0.316 µM, first compound 3.16 µM); 4.63% (second compound 0.316 µM, first compound 10 µM). The viability, T/C reads like this: under setting [14], 137%; under setting [15], 117%; under setting [16], 89.8%; under setting [17], 64.1%; (second compound 1 µM, first compound 3.16 µM) 29.7%; (second compound 1 µM, first compound 10 µM) 8.19%.

On to `Cn1ncnc1[C@H]1c2n[nH]c(=O)c3cc(F)cc(c23)N[C@@H]1c1ccc(F)cc1`, for which the viability, T/C is 100% and 93.4% (compound 0.000316 µM); 111% and 93.9% (compound 0.001 µM); 116% (compound 0.00316 µM); 108% and 101% (compound 0.01 µM); 109% and 111% (compound 0.0316 µM); 128% and 123% (compound 0.1 µM). Further, the IC50 (curve of compound) was greater than 100 nM.

In the case of `Cn1cnc2c(F)c(Nc3ccc(Br)cc3Cl)c(C(=O)NOCCO)cc21`, the viability, T/C runs as follows: (compound 0.00949 µM) 113% and 108%; (compound 0.03 µM) 106% and 96.2%; (compound 0.0949 µM) 124% and 98%; (compound 0.3 µM) 117% and 99.3%; (compound 0.949 µM) 70.1% and 49.4%; (compound 3 µM) 18.2% and 11.6%. Moreover, the IC50 (curve of compound) is 1480 nM and 935 nM.

The values above are taken from PubChem BioAssay AID2060342 (Molecular Pharmacology Branch, DTP, NCI, 2025).
